Laboratory results taken from US8227498B2, “Inhibitors of glutaminyl cyclase” (Probiodrug AG, priority 2007, dated 2012).

Target: glutaminyl cyclase (QC) (Homo sapiens, UniProt Q16769)
Test: QC inhibitor assay (fluorometric/spectrophotometric QC activity assays with inhibitory compound added)
Experimental: All measurements were performed with a BioAssay Reader HTS-7000Plus for microplates (Perkin Elmer) at 30° C. QC activity was evaluated fluorometrically using H-Gln-βNA. The samples consisted of 0.2 mM fluorogenic substrate, 0.25 U pyroglutamyl aminopeptidase (Unizyme, Hørsholm, Denmark) in 0.2 M Tris/HCl, pH 8.0 containing 20 mM EDTA and an appropriately diluted aliquot of QC in a final volume of 250 μl. Excitation/emission wavelengths were 320/410 nm. The assay reactions were initiated by addition of glutaminyl cyclase. QC activity was determined from a standard curve of β-naphthylamine under assay conditions. One unit is defined as the amount of QC catalyzing the formation of 1 μmol pGlu-MNA from H-Gln-βNA per minute under the described conditions.
In a second fluorometric assay, QC was activity determined using H-Gln-AMC as substrate. Reactions were carried out at 30° C. utilizing the NOVOStar reader for microplates (BMG labtechnologies). The samples consisted of varying concentrations of the fluorogenic substrate, 0.1 U pyroglutamyl aminopeptidase (Qiagen) in 0.05 M Tris/HCl, pH 8.0 containing 5 mM EDTA and an appropriately diluted aliquot of QC in a final volume of 250 μl. Excitation/emission wavelengths were 380/460 nm. The assay reactions were initiated by addition of glutaminyl cyclase. […] The kinetic data were evaluated using GraFit sofware.
This novel assay was used to determine the kinetic parameters for most of the QC substrates. […] Samples consisted of the respective QC substrate, 0.3 mM NADH, 14 mM α-Ketoglutaric acid and 30 U/ml glutamate dehydrogenase in a final volume of 250 μl.
The initial velocities were evaluated and the enzymatic activity was determined from a standard curve of ammonia under assay conditions. All samples were measured at 30° C., using either the [sequence]luor Plus or the Sunrise (both from TECAN) reader for microplates. Kinetic data was evaluated using GraFit software.
For inhibitor testing, the sample composition was the same as described above, except of the putative inhibitory compound added. For a rapid test of QC-inhibition, samples contained 4 mM of the respective inhibitor and a substrate concentration at 1 KM. For detailed investigations of the inhibition and determination of Ki-values, influence of the inhibitor on the auxiliary enzymes was investigated first. […] The inhibitory constant was evaluated by fitting the set of progress curves to the general equation for competitive inhibition using GraFit software.

Chain of glutaminyl cyclase (QC) (Q16769 29-361): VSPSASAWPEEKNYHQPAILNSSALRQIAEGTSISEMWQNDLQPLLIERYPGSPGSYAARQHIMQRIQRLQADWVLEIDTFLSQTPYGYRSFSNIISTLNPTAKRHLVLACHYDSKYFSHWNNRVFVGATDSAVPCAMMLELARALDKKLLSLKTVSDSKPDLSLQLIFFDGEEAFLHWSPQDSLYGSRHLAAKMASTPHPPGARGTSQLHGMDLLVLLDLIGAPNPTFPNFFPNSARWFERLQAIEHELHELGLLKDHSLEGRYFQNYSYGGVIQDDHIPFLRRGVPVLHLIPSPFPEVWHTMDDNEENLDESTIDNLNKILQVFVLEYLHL

Structure (SMILES)	IC50	Ki
COc1cc(N/C(=N/C#N)NCCCn2cncc2C)cc(OC)c1 [Example 16, 2-cyano(3,5-dimethoxyphenyl)-3-(3-(5-methyl-1H-imidazol-1-yl)propyl)guanidine]	0.726 µM	0.125 µM
Cc1cncn1CCCN/C(=N/C#N)Nc1ccc(C#N)cc1 [Example 4, 2-cyano(4-cyanophenyl)-3-(3-(5-methyl-1H-imidazol-1-yl)propyl)guanidine]	1.05 µM	0.186 µM
Cc1cc(C)c(N/C(=N/C#N)NCCCn2cnc(C)c2)c(C)c1 [Example 20, 2-cyano(mesityl)-3-(3-(4-methyl-1H-imidazol-1-yl)propyl)guanidine]	8.5 µM	1.28 µM
CCc1ccc(N/C(=N/C#N)NCCCn2cncc2C)cc1 [Example 1, 2-cyano(4-ethylphenyl)-3-(3-(5-methyl-1H-imidazol-1-yl)propyl)guanidine]	0.62 µM	0.17 µM
Cc1cn(CCCN/C(=N\C#N)Nc2cccc3ccccc23)cn1 [Example 23, 2-cyano(3-(4-methyl-1H-imidazol-1-yl)propyl)-3-(naphthalen-1-yl)guanidine]	13.8 µM	1.69 µM
Cc1cncn1CCCN/C(=N\C#N)Nc1ccc2c(c1)OCO2 [Example 14, (benzo[d][1,3]dioxol-6-yl)-2-cyano-3-(3-(5-methyl-1H-imidazol-1-yl)propyl)guanidine]	0.59 µM	0.11 µM
Cc1cncn1CCCN/C(=N\C#N)Nc1ccc(C(C)C)cc1 [Example 2]	0.55 µM	0.091 µM
Cc1cncn1CCCN/C(=N\C#N)Nc1ccc2nsnc2c1 [Example 12, (3-(5-methyl-1H-imidazol-1-yl)propyl)-3-(benzo[c][1,2,5]thiadiazol-6-yl)-2-cyanoguanidine]	1.34 µM	0.132 µM
Cc1cc(C)c(N/C(=N/C#N)NCCCn2cncc2C)c(C)c1 [Example 8, (3-(5-methyl-1H-imidazol-1-yl)propyl)-2-cyano-3-mesitylguanidine]	0.624 µM	0.106 µM
Cc1cncn1CCCN/C(=N\C#N)Nc1cccc2ccccc12 [Example 11, (3-(5-methyl-1H-imidazol-1-yl)propyl)-2-cyano-3-(naphthalen-1-yl)guanidine]	0.61 µM	0.103 µM
COc1ccc(N/C(=N/C#N)NCCCn2cncc2C)cc1 [Example 15, 2-cyano(4-methoxyphenyl)-3-(3-(5-methyl-1H-imidazol-1-yl)propyl)guanidine]	0.79 µM	0.074 µM
CCOc1ccc(N/C(=N\C#N)NCCCn2cncc2C)cc1 [Example 6, 2-cyano(4-ethoxyphenyl)-3-(3-(5-methyl-1H-imidazol-1-yl)propyl)guanidine]	1.09 µM	0.091 µM
Cc1cncn1CCCN/C(=N\C#N)Nc1ccc2ccccc2c1 [Example 10, (3-(5-methyl-1H-imidazol-1-yl)propyl)-2-cyano-3-(naphthalen-2-yl)guanidine]	1.09 µM	0.094 µM

More lines, now with the values ahead:

IC50	Ki	Structure (SMILES)
12.2 µM	2.21 µM	Cc1cn(CCCN/C(=N/C#N)Nc2ccc3nsnc3c2)cn1 [Example 24, (benzo[c][1,2,5]thiadiazol-6-yl)-2-cyano-3-(3-(4-methyl-1H-imidazol-1-yl)propyl)guanidine]
10.4 µM	1.58 µM	Cc1cn(CCCN/C(=N/C#N)Nc2ccc(-c3ccccc3)cc2)cn1 [Example 29, 2-cyano-1-[3-(4-methyl-1H-imidazol-1-yl)propyl]-4-phenylbenzene-1-guanidine]
14.9 µM	2.31 µM	Cc1cn(CCCN/C(=N\C#N)Nc2ccc(C(C)C)cc2)cn1 [Example 21, 2-cyano(4-isopropylphenyl)-3-(3-(4-methyl-1H-imidazol-1-yl)propyl)guanidine]
12.3 µM	–	COc1cc(N/C(=N\C#N)NCCCn2cnc(C)c2)cc(OC)c1 [Example 18, 2-cyano(3,5-dimethoxyphenyl)-3-(3-(4-methyl-1H-imidazol-1-yl)propyl)guanidine]
5.69 µM	1.33 µM	CCOc1ccc(N/C(=N\C#N)NCCCn2cnc(C)c2)cc1 [Example 17, 2-cyano(4-ethoxyphenyl)-3-(3-(4-methyl-1H-imidazol-1-yl)propyl)guanidine]
30.1 µM	–	Cc1cn(CCCN/C(=N/C#N)Nc2ccc(C#N)cc2)cn1 [Example 26, 2-cyano(4-cyanophenyl)-3-(3-(4-methyl-1H-imidazol-1-yl)propyl)guanidine]
12.4 µM	1.87 µM	Cc1cn(CCCN/C(=N/C#N)Nc2ccc3ccccc3c2)cn1 [Example 30, 2-cyano(3-(4-methyl-1H-imidazol-1-yl)propyl)-3-(naphthalen-2-yl)guanidine]
17.1 µM	2.6 µM	Cc1cn(CCCN/C(=N/C#N)Nc2ccc(Cl)c(Cl)c2)cn1 [Example 27, (3,4-dichlorophenyl)-2-cyano-3-(3-(4-methyl-1H-imidazol-1-yl)propyl)guanidine]
13.9 µM	2.37 µM	CCc1ccc(N/C(=N/C#N)NCCCn2cnc(C)c2)cc1 [Example 22, 2-cyano(4-ethylphenyl)-3-(3-(4-methyl-1H-imidazol-1-yl)propyl)guanidine]
14.4 µM	2.03 µM	COc1ccc(N/C(=N\C#N)NCCCn2cnc(C)c2)cc1 [Example 28, 2-cyano(4-methoxyphenyl)-3-(3-(4-methyl-1H-imidazol-1-yl)propyl)guanidine]
